In publication PMC11558128 (Advanced Science, 2024):
Where two headings read alike, the source gives them in different places. Positions of bridges follow the written chain, without caps; N, C: chain ends. Residues, ends and D or L forms follow the SMILES beside them.

Tests used:
[1] = system: acutely isolated rat cardiomyocytes; conditions: 3 mM, n = 6
rKv4.2 = molecular target: T1, rKv4.2 (Rattus norvegicus, UniProt Q63881); experiment: cell-based; conditions: SEM; for IC50: whole-cell patch clamp, HEK293T, n = 3-8
T1 construct: expressed in transfected cells; host or cells: HEK293T
T1 sequence (Q63881 1-630): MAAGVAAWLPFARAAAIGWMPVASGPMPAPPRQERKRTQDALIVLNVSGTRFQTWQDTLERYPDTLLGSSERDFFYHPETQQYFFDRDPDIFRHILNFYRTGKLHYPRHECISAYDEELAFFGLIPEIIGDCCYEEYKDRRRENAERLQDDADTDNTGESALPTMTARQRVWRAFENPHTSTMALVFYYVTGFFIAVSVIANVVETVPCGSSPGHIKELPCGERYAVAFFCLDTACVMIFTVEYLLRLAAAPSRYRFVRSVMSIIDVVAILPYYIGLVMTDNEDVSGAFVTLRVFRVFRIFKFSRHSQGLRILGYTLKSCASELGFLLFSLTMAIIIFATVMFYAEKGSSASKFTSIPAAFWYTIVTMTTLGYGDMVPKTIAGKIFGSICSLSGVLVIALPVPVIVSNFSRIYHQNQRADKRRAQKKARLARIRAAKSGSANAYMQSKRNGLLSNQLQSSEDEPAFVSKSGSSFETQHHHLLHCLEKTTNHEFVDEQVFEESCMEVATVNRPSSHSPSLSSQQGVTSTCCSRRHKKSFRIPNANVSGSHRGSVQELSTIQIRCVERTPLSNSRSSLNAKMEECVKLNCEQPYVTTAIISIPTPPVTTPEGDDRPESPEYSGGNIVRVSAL

rKv4.3 = molecular target: T2, rKv4.3 (Rattus norvegicus, UniProt Q62897); experiment: cell-based
T2 construct: expressed in transfected cells; host or cells: HEK293T
T2 sequence (Q62897 1-655): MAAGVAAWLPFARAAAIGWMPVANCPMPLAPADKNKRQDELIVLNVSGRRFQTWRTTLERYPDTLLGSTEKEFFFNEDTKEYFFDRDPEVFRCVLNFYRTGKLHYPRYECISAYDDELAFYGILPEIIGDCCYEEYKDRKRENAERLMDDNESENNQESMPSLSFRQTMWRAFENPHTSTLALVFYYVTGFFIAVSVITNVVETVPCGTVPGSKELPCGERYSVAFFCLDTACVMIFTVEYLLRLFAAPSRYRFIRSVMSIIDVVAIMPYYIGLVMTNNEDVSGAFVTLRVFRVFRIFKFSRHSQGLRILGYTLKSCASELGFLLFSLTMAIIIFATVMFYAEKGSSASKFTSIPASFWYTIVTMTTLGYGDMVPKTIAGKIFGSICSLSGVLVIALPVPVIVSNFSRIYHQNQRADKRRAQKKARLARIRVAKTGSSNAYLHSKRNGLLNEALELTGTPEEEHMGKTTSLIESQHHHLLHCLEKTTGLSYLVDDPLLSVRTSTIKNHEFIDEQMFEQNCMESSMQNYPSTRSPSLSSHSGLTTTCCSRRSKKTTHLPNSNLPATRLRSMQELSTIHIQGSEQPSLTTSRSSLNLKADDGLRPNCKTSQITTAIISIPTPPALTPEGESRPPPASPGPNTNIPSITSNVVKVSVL

[2] = system: other Kv channels (hKv1.1-1.5, rKv2.1, hKv3.1-3.4, mKv4.1, hKv7.2 and hERG)
hNav1.7 = molecular target: T3, hNav1.7 (Homo sapiens, UniProt Q15858); experiment: cell-based; conditions: whole-cell patch clamp, HEK293T, SEM
T3 construct: expressed in transfected cells; host or cells: HEK293T
T3 sequence (O60939 30-215): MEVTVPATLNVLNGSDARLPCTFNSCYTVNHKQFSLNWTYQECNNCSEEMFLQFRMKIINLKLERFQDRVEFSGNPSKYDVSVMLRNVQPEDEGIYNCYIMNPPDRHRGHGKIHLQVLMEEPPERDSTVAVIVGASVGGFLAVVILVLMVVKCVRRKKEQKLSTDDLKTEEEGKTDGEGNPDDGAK
T3 sequence (Q15858 other isoform, or with tags, fused parts or gaps): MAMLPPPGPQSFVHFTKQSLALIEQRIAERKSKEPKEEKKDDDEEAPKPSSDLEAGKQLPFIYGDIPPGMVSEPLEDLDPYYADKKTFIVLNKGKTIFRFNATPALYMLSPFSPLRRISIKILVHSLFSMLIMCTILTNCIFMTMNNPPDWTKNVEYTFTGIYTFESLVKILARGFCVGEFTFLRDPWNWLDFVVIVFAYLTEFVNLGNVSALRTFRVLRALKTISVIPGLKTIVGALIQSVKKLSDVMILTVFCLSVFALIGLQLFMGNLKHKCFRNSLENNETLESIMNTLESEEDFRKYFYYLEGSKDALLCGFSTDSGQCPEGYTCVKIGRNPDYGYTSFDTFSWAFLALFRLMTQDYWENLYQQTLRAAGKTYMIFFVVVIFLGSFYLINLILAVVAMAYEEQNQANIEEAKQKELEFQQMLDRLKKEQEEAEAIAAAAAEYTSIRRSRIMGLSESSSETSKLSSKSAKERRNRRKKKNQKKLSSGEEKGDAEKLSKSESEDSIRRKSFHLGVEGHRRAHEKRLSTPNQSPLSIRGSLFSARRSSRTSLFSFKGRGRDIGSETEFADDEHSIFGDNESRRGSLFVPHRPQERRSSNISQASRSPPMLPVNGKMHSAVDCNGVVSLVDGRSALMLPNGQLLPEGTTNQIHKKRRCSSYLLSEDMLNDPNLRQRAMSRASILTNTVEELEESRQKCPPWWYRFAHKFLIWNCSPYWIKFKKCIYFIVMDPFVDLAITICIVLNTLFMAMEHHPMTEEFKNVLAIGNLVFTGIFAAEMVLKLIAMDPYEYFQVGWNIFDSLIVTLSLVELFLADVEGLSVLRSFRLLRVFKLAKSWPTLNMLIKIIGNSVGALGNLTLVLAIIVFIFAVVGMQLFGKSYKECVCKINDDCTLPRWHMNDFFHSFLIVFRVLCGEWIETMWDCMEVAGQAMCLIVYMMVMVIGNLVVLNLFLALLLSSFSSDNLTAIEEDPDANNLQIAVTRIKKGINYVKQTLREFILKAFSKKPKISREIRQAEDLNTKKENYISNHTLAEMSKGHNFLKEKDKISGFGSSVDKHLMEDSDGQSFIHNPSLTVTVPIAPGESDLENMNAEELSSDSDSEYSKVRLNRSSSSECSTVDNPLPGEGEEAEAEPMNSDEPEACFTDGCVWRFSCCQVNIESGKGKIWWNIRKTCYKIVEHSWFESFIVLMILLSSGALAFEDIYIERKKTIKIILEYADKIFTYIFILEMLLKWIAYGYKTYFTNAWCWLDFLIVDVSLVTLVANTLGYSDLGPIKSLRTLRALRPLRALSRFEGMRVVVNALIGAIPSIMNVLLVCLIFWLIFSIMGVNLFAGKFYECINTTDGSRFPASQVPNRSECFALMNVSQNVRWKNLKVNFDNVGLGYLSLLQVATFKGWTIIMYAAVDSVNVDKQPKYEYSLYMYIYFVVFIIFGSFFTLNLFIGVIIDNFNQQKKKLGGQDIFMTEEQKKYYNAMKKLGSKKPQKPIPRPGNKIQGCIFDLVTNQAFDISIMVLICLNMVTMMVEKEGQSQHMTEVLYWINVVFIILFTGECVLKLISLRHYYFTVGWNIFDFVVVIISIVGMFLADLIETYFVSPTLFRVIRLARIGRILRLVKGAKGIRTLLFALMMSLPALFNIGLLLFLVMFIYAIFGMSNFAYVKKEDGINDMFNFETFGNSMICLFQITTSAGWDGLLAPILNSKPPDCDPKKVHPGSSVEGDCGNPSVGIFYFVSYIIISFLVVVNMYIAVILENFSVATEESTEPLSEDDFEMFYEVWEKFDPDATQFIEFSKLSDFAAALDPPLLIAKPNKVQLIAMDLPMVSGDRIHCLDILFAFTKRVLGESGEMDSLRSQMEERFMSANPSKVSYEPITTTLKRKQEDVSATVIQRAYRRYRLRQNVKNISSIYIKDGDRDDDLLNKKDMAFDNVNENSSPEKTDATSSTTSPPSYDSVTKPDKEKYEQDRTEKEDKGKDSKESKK
T3 sequence (Q07699 19-218, further chain): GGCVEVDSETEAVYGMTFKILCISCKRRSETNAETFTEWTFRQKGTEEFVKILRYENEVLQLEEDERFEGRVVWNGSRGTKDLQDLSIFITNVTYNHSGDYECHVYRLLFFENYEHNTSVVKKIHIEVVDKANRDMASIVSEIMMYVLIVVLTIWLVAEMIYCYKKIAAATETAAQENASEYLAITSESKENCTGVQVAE

[3] = same toxin concentrations (footnote b160), mean ± S.E.M., SEM
[4] = mean ± SEM, this study, read-out: IC50 on hNav1.7
[5] = mean ± SEM, read-out: IC50 on rKv4.2 WT

SMILES: Nc1ccncc1 [4-AP, 4-aminopyridine]
- effect on action potential duration (APD), 4-AP [1]: significantly prolonged

SMILES: CC(C)C[C@H](NC(=O)[C@H](CC(=O)O)NC(=O)[C@H](Cc1ccc(O)cc1)NC(=O)[C@H](CCCCN)NC(=O)[C@@H]1CSSC[C@@H]2NC(=O)[C@H](CCC(N)=O)NC(=O)[C@H](CC(=O)O)NC(=O)[C@H](CC(N)=O)NC(=O)[C@H](CO)NC(=O)[C@@H]3CCCN3C(=O)[C@H](CC(N)=O)NC(=O)[C@@H]3CSSC[C@H](NC(=O)[C@H](C(C)C)NC(=O)[C@H](CC(C)C)NC(=O)[C@H](CO)NC(=O)[C@H](CO)NC(=O)[C@H](CO)NC(=O)[C@H](CCCCN)NC(=O)[C@H](CSSC[C@H](NC(=O)[C@H](C)N)C(=O)N[C@@H](CC(C)C)C(=O)NCC(=O)N[C@@H](Cc4ccccc4)C(=O)NCC(=O)N[C@@H](CCC(=O)O)C(=O)N[C@@H](CCCCN)C(=O)N3)NC2=O)C(=O)N[C@@H](CO)C(=O)N[C@@H](CCC(N)=O)C(=O)N[C@@H](CCCCN)C(=O)N[C@@H](Cc2c[nH]cn2)C(=O)N[C@@H](CCCCN)C(=O)N[C@@H](Cc2c[nH]c3ccccc23)C(=O)N1)C(N)=O [Ca2a]
- Hill coefficients on rKv4.2 (rKv4.2; Hill fit of concentration-response curves, mean ± S.E.M., n = 4-8): 1.05 ± 0.17
- rKv4.2 voltage dependence of activation, V1/2 with toxin (rKv4.2): 42.0±2.1 mV
- rKv4.2 voltage dependence of inactivation, V1/2 with toxin (rKv4.2): -54.3±1.4 mV
- rKv4.3 voltage dependence of activation, V1/2 with toxin (rKv4.3; SEM): 59.0±3.0 mV
- rKv4.3 voltage dependence of inactivation, V1/2 with toxin (rKv4.3; SEM): -48.1±2.0 mV
- rKv4.3 voltage dependence of activation, κ with toxin (rKv4.3; [3]): 12.2±0.9 mV
- rKv4.3 voltage dependence of inactivation, κ with toxin (rKv4.3; [3]): 4.5±0.2 mV
- influence on the steady-state inactivation of rKv4.3 (rKv4.3; sub-saturation concentration): almost no influence

SMILES: CC[C@H](C)[C@H](NC(=O)[C@H](CCCCN)NC(=O)[C@H](Cc1ccc(O)cc1)NC(=O)[C@H](CCCCN)NC(=O)[C@@H]1CSSC[C@@H]2NC(=O)[C@H](CCC(=O)O)NC(=O)[C@H](CC(=O)O)NC(=O)[C@H](CCCCN)NC(=O)CNC(=O)[C@@H]3CCCN3C(=O)[C@H]([C@@H](C)O)NC(=O)[C@@H]3CSSC[C@H](NC(=O)[C@H](C(C)C)NC(=O)[C@H](Cc4c[nH]cn4)NC(=O)[C@H](CC(N)=O)NC(=O)[C@@H]4CCCN4C(=O)[C@H](CSSC[C@H](NC(=O)[C@H](C)N)C(=O)N[C@@H](CCCCN)C(=O)NCC(=O)N[C@@H]([C@@H](C)CC)C(=O)N[C@@H](Cc4ccccc4)C(=O)N[C@@H](C(C)C)C(=O)N[C@@H]([C@@H](C)O)C(=O)N3)NC2=O)C(=O)N[C@@H](CO)C(=O)N[C@@H](CO)C(=O)N[C@@H](CCCCN)C(=O)N[C@@H](Cc2c[nH]cn2)C(=O)N[C@@H](CCCCN)C(=O)N[C@@H](Cc2c[nH]c3ccccc23)C(=O)N1)C(N)=O [Cl6b] (H-ACKGIFVTCTPGKDECCPNHVCSSKHKWCKYKI-NH2; disulfide 2-17, 9-22, 16-29)
- effect on the current traces of other Kv channels [2]: no obvious or only minimal effect

SMILES: CC(C)C[C@H](NC(=O)[C@H](Cc1ccc(O)cc1)NC(=O)[C@@H](NC(=O)[C@H](CCCCN)NC(=O)[C@@H]1CSSC[C@@H]2NC(=O)[C@H](CCC(=O)O)NC(=O)[C@H](CC(N)=O)NC(=O)[C@H](CCCCN)NC(=O)CNC(=O)[C@@H]3CCCN3C(=O)[C@H]([C@@H](C)O)NC(=O)[C@@H]3CSSC[C@H](NC(=O)[C@H](C)NC(=O)[C@H](C)NC(=O)[C@H](CC(N)=O)NC(=O)[C@@H]4CCCN4C(=O)[C@H](CSSC[C@H](NC(=O)CN)C(=O)N[C@@H](CCCCN)C(=O)NCC(=O)N[C@@H](Cc4ccccc4)C(=O)NCC(=O)N[C@@H](CC(=O)O)C(=O)N[C@@H](CO)C(=O)N3)NC2=O)C(=O)N[C@@H](CO)C(=O)N[C@@H](CO)C(=O)N[C@@H](CCCCN)C(=O)N[C@@H](Cc2c[nH]cn2)C(=O)N[C@@H](CCCCN)C(=O)N[C@@H](Cc2c[nH]c3ccccc23)C(=O)N1)C(C)C)C(N)=O [Y20A] (H-GCKGFGDSCTPGKNECCPNAACSSKHKWCKVYL-NH2; disulfide 2-17, 9-22, 16-29)
- IC50 (hNav1.7; [4]): 7160 ± 528 nM
- IC50 (rKv4.2; [5]): 4000 ± 2000 nM

SMILES: CC(C)C[C@H](NC(=O)[C@H](Cc1ccc(O)cc1)NC(=O)[C@@H](NC(=O)[C@H](CCCCN)NC(=O)[C@@H]1CSSC[C@@H]2NC(=O)[C@H](CCC(=O)O)NC(=O)[C@H](CC(N)=O)NC(=O)[C@H](CCCCN)NC(=O)CNC(=O)[C@@H]3CCCN3C(=O)[C@H]([C@@H](C)O)NC(=O)[C@@H]3CSSC[C@H](NC(=O)[C@H](C)NC(=O)[C@H](Cc4c[nH]c5ccccc45)NC(=O)[C@H](CC(N)=O)NC(=O)[C@@H]4CCCN4C(=O)[C@H](CSSC[C@H](NC(=O)CN)C(=O)N[C@@H](CCCCN)C(=O)NCC(=O)N[C@@H](Cc4ccccc4)C(=O)NCC(=O)N[C@@H](CC(=O)O)C(=O)N[C@@H](CO)C(=O)N3)NC2=O)C(=O)N[C@@H](CO)C(=O)N[C@@H](CO)C(=O)N[C@@H](CCCCN)C(=O)N[C@@H](Cc2c[nH]cn2)C(=O)N[C@@H](CCCCN)C(=O)N[C@@H](Cc2c[nH]c3ccccc23)C(=O)N1)C(C)C)C(N)=O [Y20W] (H-GCKGFGDSCTPGKNECCPNWACSSKHKWCKVYL-NH2; disulfide 2-17, 9-22, 16-29)
- IC50 (hNav1.7; [4]): 495 ± 39 nM
- IC50 (rKv4.2; [5]): 228 ± 33 nM

SMILES: CC(C)C[C@H](NC(=O)[C@H](C)NC(=O)[C@@H](NC(=O)[C@H](CCCCN)NC(=O)[C@@H]1CSSC[C@@H]2NC(=O)[C@H](CCC(=O)O)NC(=O)[C@H](CC(N)=O)NC(=O)[C@H](CCCCN)NC(=O)CNC(=O)[C@@H]3CCCN3C(=O)[C@H]([C@@H](C)O)NC(=O)[C@@H]3CSSC[C@H](NC(=O)[C@H](C)NC(=O)[C@H](Cc4ccc(O)cc4)NC(=O)[C@H](CC(N)=O)NC(=O)[C@@H]4CCCN4C(=O)[C@H](CSSC[C@H](NC(=O)CN)C(=O)N[C@@H](CCCCN)C(=O)NCC(=O)N[C@@H](Cc4ccccc4)C(=O)NCC(=O)N[C@@H](CC(=O)O)C(=O)N[C@@H](CO)C(=O)N3)NC2=O)C(=O)N[C@@H](CO)C(=O)N[C@@H](CO)C(=O)N[C@@H](CCCCN)C(=O)N[C@@H](Cc2c[nH]cn2)C(=O)N[C@@H](CCCCN)C(=O)N[C@@H](Cc2c[nH]c3ccccc23)C(=O)N1)C(C)C)C(N)=O [Y32A] (H-GCKGFGDSCTPGKNECCPNYACSSKHKWCKVAL-NH2; disulfide 2-17, 9-22, 16-29)
- IC50 (hNav1.7; [4]): 936 ± 123 nM
- IC50 (rKv4.2; [5]): 1000 ± 177 nM

SMILES: CC[C@H](C)[C@@H]1NC(=O)[C@@H]2CSSC[C@@H]3NC(=O)[C@H](C(C)C)NC(=O)[C@H](CC(C)C)NC(=O)[C@H](CC(N)=O)NC(=O)[C@@H]4CCCN4C(=O)[C@H](CCCNC(=N)N)NC(=O)[C@H](CSSC[C@H](NC(=O)[C@@H](N)CC(=O)O)C(=O)N[C@@H](CC(C)C)C(=O)NCC(=O)N[C@@H](C)C(=O)N[C@@H](Cc4ccccc4)C(=O)N[C@@H](CCCNC(=N)N)C(=O)N[C@@H](CCCCN)C(=O)N2)NC(=O)[C@H](CSSC[C@@H](C(=O)N[C@@H](CCCCN)C(=O)N[C@@H](Cc2ccc(O)cc2)C(=O)N[C@H](C(=O)N[C@@H](Cc2ccccc2)C(N)=O)C(C)C)NC(=O)[C@H](Cc2c[nH]c4ccccc24)NC(=O)[C@H](CCCNC(=N)N)NC(=O)[C@H](Cc2c[nH]cn2)NC(=O)[C@H](CC(C)C)NC(=O)[C@H](C)NC(=O)[C@H](CO)NC3=O)NC(=O)[C@H](CCCCN)NC(=O)[C@H](CC(=O)O)NC(=O)[C@H](CC(N)=O)NC(=O)[C@H](CC(=O)O)NC(=O)[C@@H]2CCCN2C1=O [mGpTx1-R25A] (H-DCLGAFRKCIPDNDKCCRPNLVCSALHRWCKYVF-NH2; disulfide 2-17, 9-23, 16-30)
- IC50 (hNav1.7; hNav1.7 with β1 and β2, held at -90 mV, step to 0 mV, mean ± S.E.M., n = 3-7, read-out: IC50 for hNav1.7): 1.3 ± 0.1 nM
- IC50 (rKv4.2; held at -80 mV, step to 0 mV, mean ± S.E.M., read-out: IC50 for rKv4.2): 57.2 ± 6.2 nM
